Test results: ChEMBL document CHEMBL5465560, “Selectivity Literature for EUbOPEN Chemogenomic Library” (2024)

Key:
[1] = target: T1, Serine/threonine-protein kinase D3 (Homo sapiens) (UniProt O94806); assay: Selectivity interaction (Ambit KINOMEscan and KiNATiv profiling in Jurkat cells) EUB0000090b PRKD3; type: cell-based; conditions: at 1 µM
T1 sequence (whole entry): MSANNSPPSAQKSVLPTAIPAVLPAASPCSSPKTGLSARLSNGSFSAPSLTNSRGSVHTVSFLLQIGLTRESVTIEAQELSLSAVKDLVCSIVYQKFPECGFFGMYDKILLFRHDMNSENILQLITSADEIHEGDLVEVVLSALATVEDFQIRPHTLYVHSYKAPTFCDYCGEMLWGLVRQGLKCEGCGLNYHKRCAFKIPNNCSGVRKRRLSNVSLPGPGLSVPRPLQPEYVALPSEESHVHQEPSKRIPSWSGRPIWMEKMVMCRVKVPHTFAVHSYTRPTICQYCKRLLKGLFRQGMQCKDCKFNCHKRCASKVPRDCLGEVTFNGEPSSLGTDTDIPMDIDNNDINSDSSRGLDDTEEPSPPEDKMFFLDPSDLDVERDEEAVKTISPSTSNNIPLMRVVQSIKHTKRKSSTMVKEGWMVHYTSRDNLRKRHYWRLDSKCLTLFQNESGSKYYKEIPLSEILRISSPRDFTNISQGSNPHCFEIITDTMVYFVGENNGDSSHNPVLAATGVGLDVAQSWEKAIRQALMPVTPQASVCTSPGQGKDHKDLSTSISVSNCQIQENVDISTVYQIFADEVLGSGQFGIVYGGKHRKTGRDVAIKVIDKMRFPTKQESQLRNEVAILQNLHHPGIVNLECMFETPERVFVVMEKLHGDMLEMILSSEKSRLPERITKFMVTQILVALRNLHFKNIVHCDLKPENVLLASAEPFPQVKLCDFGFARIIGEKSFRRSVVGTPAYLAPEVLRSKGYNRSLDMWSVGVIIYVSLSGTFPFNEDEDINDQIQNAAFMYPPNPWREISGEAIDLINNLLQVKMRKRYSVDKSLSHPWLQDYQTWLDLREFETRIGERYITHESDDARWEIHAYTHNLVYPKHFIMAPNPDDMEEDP

[2] = target: PH-interacting protein (Homo sapiens) (UniProt Q8WWQ0); assay: Selectivity interaction (Bromodomain panel (DSF asssay)) EUB0000270b PHIP
[3] = target: Maternal embryonic leucine zipper kinase (Homo sapiens) (UniProt Q14680); assay: Selectivity interaction (KinomeScan (DiscoverX)) EUB0000695a MELK; conditions: at 100 nM
[4] = target: Leukocyte tyrosine kinase receptor (Homo sapiens, UniProt P29376); assay: Selectivity interaction (KinomeScan (DiscoverX)) EUB0000595a LTK; conditions: at 10 µM
[5] = test system: Phosphatidylinositol 4,5-bisphosphate 3-kinase catalytic subunit alpha isoform (Homo sapiens), P42336 [E545K]; assay: (§1) Selectivity interaction (Ambit KINOMEscan) EUB0000092b PIK3CA; conditions: at 10 µM
[6] = test system: Phosphatidylinositol 4,5-bisphosphate 3-kinase catalytic subunit alpha isoform (Homo sapiens), P42336 [C420R]; assay: as §1; conditions: at 10 µM
[7] = target: STE20-like serine/threonine-protein kinase (Homo sapiens, UniProt Q9H2G2); assay: Selectivity interaction (ActivX KiNativ screen (ex vivo kinase selectivity in human PBMCs)) EUB0001619a SLK; type: cell-based; conditions: PBMC, at 1 µM
[8] = target: Tyrosine-protein kinase Fes/Fps (Homo sapiens) (UniProt P07332); assay: Selectivity interaction (ActivX KiNativ screen (ex vivo kinase selectivity in human PBMCs)) EUB0001619a FES; type: cell-based; conditions: PBMC, at 1 µM
[9] = target: Prostaglandin G/H synthase 1 (Homo sapiens) (UniProt P23219); assay: Selectivity interaction (Safety Panel 44tm (Eurofins)) EUB0000162b PTGS1; conditions: at 10 µM
[10] = target: Serine/threonine-protein kinase 38-like (Homo sapiens) (UniProt Q9Y2H1); assay: Selectivity interaction (KinomeScan (DiscoverX)) EUB0000607a STK38L; conditions: at 10 µM
[11] = target: T2, Peripheral plasma membrane protein CASK (Homo sapiens) (UniProt O14936); assay: Selectivity interaction (KinomeScan (DiscoverX)) EUB0000607a CASK; conditions: at 10 µM
T2 sequence (whole entry): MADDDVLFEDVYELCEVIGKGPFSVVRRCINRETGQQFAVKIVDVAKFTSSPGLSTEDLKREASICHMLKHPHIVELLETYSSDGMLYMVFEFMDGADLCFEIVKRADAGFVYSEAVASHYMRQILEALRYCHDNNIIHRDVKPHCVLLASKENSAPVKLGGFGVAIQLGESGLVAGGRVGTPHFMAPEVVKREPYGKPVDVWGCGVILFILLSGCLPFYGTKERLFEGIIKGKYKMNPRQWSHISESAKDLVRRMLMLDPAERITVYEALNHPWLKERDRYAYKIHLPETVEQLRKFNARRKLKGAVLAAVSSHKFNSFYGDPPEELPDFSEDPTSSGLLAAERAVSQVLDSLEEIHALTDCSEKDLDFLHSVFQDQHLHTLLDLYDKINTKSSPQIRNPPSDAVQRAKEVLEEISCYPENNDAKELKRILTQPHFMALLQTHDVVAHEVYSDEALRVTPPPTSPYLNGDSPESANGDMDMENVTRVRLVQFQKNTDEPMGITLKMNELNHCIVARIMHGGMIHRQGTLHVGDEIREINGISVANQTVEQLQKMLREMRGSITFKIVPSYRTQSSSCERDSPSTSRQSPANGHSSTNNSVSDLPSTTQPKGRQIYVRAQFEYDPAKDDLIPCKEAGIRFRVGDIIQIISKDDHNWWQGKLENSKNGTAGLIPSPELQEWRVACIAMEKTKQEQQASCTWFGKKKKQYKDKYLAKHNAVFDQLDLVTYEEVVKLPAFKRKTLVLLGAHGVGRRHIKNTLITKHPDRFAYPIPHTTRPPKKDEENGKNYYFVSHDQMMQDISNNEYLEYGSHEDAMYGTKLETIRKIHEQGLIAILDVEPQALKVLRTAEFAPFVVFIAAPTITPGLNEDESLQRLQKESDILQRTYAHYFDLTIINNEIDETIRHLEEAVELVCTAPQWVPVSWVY

Sequence of Leukocyte tyrosine kinase receptor (P29376 whole entry, canonical isoform): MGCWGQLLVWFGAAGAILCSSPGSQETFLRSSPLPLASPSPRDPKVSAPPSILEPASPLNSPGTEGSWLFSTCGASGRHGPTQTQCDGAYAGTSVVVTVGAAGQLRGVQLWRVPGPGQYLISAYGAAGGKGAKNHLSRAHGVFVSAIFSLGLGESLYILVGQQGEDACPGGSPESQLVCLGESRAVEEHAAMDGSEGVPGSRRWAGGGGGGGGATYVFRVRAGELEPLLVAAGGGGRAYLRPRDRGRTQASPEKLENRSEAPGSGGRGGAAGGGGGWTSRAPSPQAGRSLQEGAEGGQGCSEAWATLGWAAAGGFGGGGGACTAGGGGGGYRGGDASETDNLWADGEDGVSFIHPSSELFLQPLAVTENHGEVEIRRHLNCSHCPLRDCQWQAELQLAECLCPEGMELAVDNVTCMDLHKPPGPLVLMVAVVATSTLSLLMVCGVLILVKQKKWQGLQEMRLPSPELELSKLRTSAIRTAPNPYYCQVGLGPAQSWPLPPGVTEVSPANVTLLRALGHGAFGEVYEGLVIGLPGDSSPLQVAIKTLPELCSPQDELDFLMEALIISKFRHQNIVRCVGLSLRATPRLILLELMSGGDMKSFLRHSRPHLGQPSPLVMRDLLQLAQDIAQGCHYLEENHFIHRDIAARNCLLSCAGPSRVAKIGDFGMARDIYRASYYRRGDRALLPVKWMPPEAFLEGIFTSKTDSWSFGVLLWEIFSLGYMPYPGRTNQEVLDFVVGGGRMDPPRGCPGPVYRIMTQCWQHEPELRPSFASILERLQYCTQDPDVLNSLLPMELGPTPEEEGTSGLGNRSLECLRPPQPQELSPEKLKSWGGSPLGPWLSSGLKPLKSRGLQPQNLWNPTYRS
Sequence of Maternal embryonic leucine zipper kinase (Homo sapiens) (Q14680 whole entry, looked up): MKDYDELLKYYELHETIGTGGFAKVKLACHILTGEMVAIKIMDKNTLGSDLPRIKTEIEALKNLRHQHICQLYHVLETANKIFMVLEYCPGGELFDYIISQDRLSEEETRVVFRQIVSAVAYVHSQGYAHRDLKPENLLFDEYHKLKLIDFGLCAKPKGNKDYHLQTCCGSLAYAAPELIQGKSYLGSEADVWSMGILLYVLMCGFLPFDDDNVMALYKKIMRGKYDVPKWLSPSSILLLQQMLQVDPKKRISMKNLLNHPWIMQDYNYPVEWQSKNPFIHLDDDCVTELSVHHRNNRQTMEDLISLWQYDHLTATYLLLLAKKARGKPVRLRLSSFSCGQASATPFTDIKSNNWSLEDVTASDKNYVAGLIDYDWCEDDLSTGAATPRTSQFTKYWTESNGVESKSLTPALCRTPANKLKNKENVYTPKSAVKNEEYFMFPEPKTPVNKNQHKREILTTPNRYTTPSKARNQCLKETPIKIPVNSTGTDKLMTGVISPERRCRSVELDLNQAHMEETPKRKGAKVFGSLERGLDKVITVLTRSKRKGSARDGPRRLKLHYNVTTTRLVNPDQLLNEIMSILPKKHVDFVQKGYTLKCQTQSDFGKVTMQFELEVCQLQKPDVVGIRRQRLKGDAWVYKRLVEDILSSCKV
Sequence of Serine/threonine-protein kinase 38-like (Homo sapiens) (Q9Y2H1 2-464 limits assumed): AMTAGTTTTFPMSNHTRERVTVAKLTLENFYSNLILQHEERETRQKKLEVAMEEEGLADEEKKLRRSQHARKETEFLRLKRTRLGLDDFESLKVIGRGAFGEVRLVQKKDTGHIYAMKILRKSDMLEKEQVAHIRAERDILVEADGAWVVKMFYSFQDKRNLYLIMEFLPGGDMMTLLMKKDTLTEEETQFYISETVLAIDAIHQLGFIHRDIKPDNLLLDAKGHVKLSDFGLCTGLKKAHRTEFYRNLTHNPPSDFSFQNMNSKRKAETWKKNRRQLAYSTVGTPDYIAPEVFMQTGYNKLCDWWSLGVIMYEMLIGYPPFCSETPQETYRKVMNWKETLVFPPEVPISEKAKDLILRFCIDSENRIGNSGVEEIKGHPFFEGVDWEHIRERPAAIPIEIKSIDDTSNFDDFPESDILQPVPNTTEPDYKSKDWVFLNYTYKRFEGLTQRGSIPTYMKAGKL
Sequence of Prostaglandin G/H synthase 1 (Homo sapiens) (P23219 whole entry): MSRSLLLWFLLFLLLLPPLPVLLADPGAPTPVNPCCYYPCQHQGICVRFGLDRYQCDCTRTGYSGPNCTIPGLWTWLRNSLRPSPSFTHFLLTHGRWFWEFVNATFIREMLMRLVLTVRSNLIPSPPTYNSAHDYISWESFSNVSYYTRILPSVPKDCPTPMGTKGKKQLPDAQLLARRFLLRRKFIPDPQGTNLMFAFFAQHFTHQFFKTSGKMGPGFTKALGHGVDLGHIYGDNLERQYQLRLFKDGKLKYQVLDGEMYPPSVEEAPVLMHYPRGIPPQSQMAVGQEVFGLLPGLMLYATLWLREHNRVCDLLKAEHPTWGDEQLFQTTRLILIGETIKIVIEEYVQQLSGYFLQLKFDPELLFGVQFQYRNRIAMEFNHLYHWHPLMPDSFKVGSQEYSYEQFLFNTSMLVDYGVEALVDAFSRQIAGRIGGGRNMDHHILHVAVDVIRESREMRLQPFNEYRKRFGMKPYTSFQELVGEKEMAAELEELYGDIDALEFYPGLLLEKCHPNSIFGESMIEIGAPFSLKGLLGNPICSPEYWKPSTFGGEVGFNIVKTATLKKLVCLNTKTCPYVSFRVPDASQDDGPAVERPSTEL
Sequence of Phosphatidylinositol 4,5-bisphosphate 3-kinase catalytic subunit alpha isoform (Homo sapiens), P42336 [C420R] (P42336 whole entry C420R, canonical isoform): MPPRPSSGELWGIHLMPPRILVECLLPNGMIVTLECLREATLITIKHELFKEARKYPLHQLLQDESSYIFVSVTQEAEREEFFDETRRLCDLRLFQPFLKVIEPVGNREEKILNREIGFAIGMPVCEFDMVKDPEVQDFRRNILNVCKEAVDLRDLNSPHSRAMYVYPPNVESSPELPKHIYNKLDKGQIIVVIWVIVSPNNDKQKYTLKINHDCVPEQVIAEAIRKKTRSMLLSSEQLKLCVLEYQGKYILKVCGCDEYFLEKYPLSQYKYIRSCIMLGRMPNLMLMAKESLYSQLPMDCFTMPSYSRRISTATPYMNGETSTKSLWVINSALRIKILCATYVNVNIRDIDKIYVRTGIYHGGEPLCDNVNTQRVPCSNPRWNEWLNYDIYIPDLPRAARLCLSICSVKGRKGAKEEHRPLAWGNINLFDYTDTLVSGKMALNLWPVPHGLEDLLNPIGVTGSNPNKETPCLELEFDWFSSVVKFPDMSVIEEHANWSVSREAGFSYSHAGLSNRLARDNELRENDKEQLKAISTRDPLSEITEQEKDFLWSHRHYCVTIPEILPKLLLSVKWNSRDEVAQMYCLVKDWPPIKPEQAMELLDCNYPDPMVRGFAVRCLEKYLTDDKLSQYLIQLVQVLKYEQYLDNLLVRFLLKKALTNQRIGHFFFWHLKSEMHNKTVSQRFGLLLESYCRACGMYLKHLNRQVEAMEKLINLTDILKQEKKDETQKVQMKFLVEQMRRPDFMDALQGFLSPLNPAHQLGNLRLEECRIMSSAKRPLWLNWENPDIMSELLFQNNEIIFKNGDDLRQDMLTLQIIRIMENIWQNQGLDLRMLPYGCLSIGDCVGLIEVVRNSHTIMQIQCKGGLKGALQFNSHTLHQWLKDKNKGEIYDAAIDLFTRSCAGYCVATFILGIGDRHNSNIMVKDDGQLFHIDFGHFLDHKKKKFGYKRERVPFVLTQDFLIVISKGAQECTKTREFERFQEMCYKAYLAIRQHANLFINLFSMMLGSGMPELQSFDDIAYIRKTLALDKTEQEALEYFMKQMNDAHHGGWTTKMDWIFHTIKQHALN
Sequence of Phosphatidylinositol 4,5-bisphosphate 3-kinase catalytic subunit alpha isoform (Homo sapiens), P42336 [E545K] (P42336 whole entry E545K, canonical isoform): as the sequence (P42336 whole entry C420R, canonical isoform) above, with R420C, E545K counted along it
Sequence of Tyrosine-protein kinase Fes/Fps (Homo sapiens) (P07332 whole entry): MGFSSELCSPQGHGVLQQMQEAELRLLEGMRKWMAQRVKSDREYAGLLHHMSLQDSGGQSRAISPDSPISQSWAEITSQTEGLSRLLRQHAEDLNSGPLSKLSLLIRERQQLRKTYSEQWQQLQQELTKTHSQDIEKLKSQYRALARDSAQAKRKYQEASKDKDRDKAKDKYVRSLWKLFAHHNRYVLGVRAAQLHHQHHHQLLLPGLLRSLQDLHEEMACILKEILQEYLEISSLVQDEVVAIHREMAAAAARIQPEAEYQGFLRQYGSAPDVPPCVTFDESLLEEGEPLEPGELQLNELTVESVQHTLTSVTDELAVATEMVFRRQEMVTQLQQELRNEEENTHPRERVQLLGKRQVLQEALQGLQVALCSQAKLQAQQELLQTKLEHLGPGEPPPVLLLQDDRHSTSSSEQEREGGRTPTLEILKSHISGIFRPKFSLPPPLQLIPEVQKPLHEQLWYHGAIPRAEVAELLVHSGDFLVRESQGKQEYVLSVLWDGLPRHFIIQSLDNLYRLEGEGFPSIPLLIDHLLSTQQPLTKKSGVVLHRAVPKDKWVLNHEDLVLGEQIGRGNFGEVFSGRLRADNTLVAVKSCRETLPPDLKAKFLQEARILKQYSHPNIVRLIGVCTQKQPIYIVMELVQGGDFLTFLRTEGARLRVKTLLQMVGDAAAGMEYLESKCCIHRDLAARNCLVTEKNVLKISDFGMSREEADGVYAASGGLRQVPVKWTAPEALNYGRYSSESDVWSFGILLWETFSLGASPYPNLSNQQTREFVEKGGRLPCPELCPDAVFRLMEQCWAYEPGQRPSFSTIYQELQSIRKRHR

In the case of `CN(C)C/C=C/C(=O)Nc1ccc(C(=O)N2CCCC(Nc3ncc(Cl)c(-c4c[nH]c5ccccc45)n3)C2)cc1` (stereo unspecified), the % of control [1] was 33%.

For `Cc1cc(CN)cc(C)c1-c1ncn(C)c1-c1cncn1C`, the dTM [2] was -1.36 K.

For `Cc1cc(F)c(C(=O)Nc2cccc(-c3nncn3C(C)C)n2)cc1-n1cnc(C2CC2)c1`, the % of control [3] was 100%.

With `COCC(=O)NC/C=C/c1ccc2ncnc(Nc3ccc(Oc4ccc(C)nc4)c(C)c3)c2c1` [CP-724714] the % of control [4] was 88%.

For `CCC(=O)N1CCN(c2ccc(-n3c(=O)ccc4cnc5ccc(-c6cnc7ccccc7c6)cc5c43)cc2C(F)(F)F)CC1`, the % of control [5] was 0.6% and the % of control [6] was 0.7%.

With `N#Cc1cccc(-c2c[nH]c3ncnc(N4CCOCC4)c23)c1` the % of inhibition [7] was 66% and the % of inhibition [8] was 2%.

`CN(C)C(=O)Cn1cc(-c2ccc(-c3cncc4ccccc34)cc2)cn1` gave a % of control [9] of 59%.

With `CNC(=O)Nc1ccc(-c2nc(N3CC4CCC(C3)O4)c3cnn(C4CCC5(CC4)OCCO5)c3n2)cc1` the % of control [10] was 100% and the % of control [11] was 64%.
